Reference: patent US20250176599A1, “FLAVOR COMPOSITION AND FOOD AND BEVERAGE” (TAKASAGO INTERNATIONAL CORPORATION, priority 2021, published 2025)

How the values were obtained:
[1] = Sensory evaluation of aqueous solution VI containing 1,5-octadien-3-ol 10 ppb: off-flavor intensity and masking component intensity; conditions: aqueous solution VI, 1,5-octadien-3-ol 10 ppb, average score 0-4
Method: (§1) In ion-exchanged water, each degradation component was added to achieve the concentrations listed in Table 1, and aqueous solutions I to VI containing these degradation components were prepared.
(§2) For the aforementioned aqueous solutions containing degradation components, nootkatone was added at the concentrations listed in Table 2 to confirm the intensity of the off-flavor (masking effect) in each sample and the intensity of the masking component itself (the impact on the flavor of the food and/or beverage itself).
(§3) The test was conducted as follows. Eight experienced panelists were selected to conduct a sensory evaluation. The intensity of the off-flavor of the aqueous solution containing the degradation components derived from unsaturated fatty acids, without added masking components, was set as “Evaluation: 4.” The ion-exchanged water free of any degradation components was set as “Evaluation: 0.” The intensity of the off-flavor (masking effect) of each sample was then relatively evaluated according to the following evaluation criteria.
(§4) • Off-flavor is strongly sensed: 4 points • Off-flavor is sensed: 3 points • Off-flavor is slightly sensed: 2 points • Off-flavor is barely sensed: 1 point • Off-flavor is not sensed at all: 0 points
(§5) Also, the intensity of the masking components (impact on the flavor of the food and/or beverage itself) was absolutely evaluated according to the following evaluation criteria.
(§6) • Masking component is strongly sensed: 4 points • Masking component is sensed: 3 points • Masking component is slightly sensed: 2 points • Masking component is barely sensed: 1 point • Masking component is not sensed at all: 0 points

[2] = Sensory evaluation of aqueous solution II containing (E)-2-octenal 10 ppb: off-flavor intensity and masking component intensity; conditions: (E)-2-octenal 10 ppb, average score 0-4
Method: as §1, §2, §3, §4, §5, §6

[3] = Overall conclusion of the sensory evaluation across aqueous solutions I to VI
Method: as §1, §2, §3, §4, §5, §6

[4] = Sensory evaluation of aqueous solution V containing 1-octen-3-ol 10 ppb: off-flavor intensity and masking component intensity; conditions: 1-octen-3-ol 10 ppb, average score 0-4
Method: as §1, §2, §3, §4, §5, §6

[5] = Sensory evaluation of aqueous solution III containing 1-octen-3-one 1 ppb: off-flavor intensity and masking component intensity; conditions: 1-octen-3-one 1 ppb, average score 0-4
Method: as §1, §2, §3, §4, §5, §6

[6] = Sensory evaluation of aqueous solution I containing (E)-2-nonenal 1 ppb: off-flavor intensity and masking component intensity; conditions: (E)-2-nonenal 1 ppb, average score 0-4
Method: as §1, §2, §3, §4, §5, §6

[7] = Sensory evaluation of aqueous solution IV containing 1,5-octadien-3-one 100 ppt: off-flavor intensity and masking component intensity; conditions: aqueous solution IV, 1,5-octadien-3-one 100 ppt, average score 0-4
Method: as §1, §2, §3, §4, §5, §6

C=C(C)[C@@H]1CCC2=CC(=O)C[C@@H](C)[C@]2(C)C1 [Nootkatone, nootkatone]
Off-Flavor Intensity ([1]; 1 ppb added): 2.5 points
Off-Flavor Intensity ([1]; 1 ppm added): 1.1 points
Off-Flavor Intensity ([1]; 5 ppm added): 0.6 points
Off-Flavor Intensity ([1]; 10 ppb added): 2.1 points
Off-Flavor Intensity ([1]; 10 ppm added): 0.6 points
Off-Flavor Intensity ([1]; 10 ppt added): 3.1 points
Off-Flavor Intensity ([1]; 100 ppb added): 1.5 points
Off-Flavor Intensity ([1]; 100 ppt added): 3.0 points
Off-Flavor Intensity ([2]; 1 ppb added): 2.6 points
Off-Flavor Intensity ([2]; 1 ppm added): 1.5 points
Off-Flavor Intensity ([2]; 5 ppm added): 0.6 points
Off-Flavor Intensity ([2]; 10 ppb added): 2.5 points
Off-Flavor Intensity ([2]; 10 ppm added): 0.4 points
Off-Flavor Intensity ([2]; 10 ppt added): 3.5 points
Off-Flavor Intensity ([2]; 100 ppb added): 1.9 points
Off-Flavor Intensity ([2]; 100 ppt added): 3.1 points
concentration that masks the off-flavor and does not affect the flavor of the food and/or beverage itself, lower limit [3]: ≥ 100 ppt
concentration that masks the off-flavor and does not affect the flavor of the food and/or beverage itself, upper limit [3]: ≤ 1 ppm
Off-Flavor Intensity ([4]; 1 ppb added): 2.5 points
Off-Flavor Intensity ([4]; 1 ppm added): 1.5 points
Off-Flavor Intensity ([4]; 5 ppm added): 0.9 points
Off-Flavor Intensity ([4]; 10 ppb added): 2.5 points
Off-Flavor Intensity ([4]; 10 ppm added): 0.5 points
Off-Flavor Intensity ([4]; 10 ppt added): 3.4 points
Off-Flavor Intensity ([4]; 100 ppb added): 1.8 points
Off-Flavor Intensity ([4]; 100 ppt added): 2.9 points
Off-Flavor Intensity ([5]; 1 ppb added): 2.6 points
Off-Flavor Intensity ([5]; 1 ppm added): 1.6 points
Off-Flavor Intensity ([5]; 5 ppm added): 1.1 points
Off-Flavor Intensity ([5]; 10 ppb added): 2.3 points
Off-Flavor Intensity ([5]; 10 ppm added): 0.9 points
Off-Flavor Intensity ([5]; 10 ppt added): 3.4 points
Off-Flavor Intensity ([5]; 100 ppb added): 2.1 points
Off-Flavor Intensity ([5]; 100 ppt added): 3.1 points
Off-Flavor Intensity ([6]; 1 ppb added): 2.8 points
Off-Flavor Intensity ([6]; 1 ppm added): 1.8 points
Off-Flavor Intensity ([6]; 5 ppm added): 1.1 points
Off-Flavor Intensity ([6]; 10 ppb added): 2.4 points
Off-Flavor Intensity ([6]; 10 ppm added): 0.8 points
Off-Flavor Intensity ([6]; 10 ppt added): 3.4 points
Off-Flavor Intensity ([6]; 100 ppb added): 2.1 points
Off-Flavor Intensity ([6]; 100 ppt added): 3.3 points
Off-Flavor Intensity ([7]; 1 ppb added): 3.1 points
Off-Flavor Intensity ([7]; 1 ppm added): 2.0 points
Off-Flavor Intensity ([7]; 5 ppm added): 1.3 points
Off-Flavor Intensity ([7]; 10 ppb added): 2.9 points
Off-Flavor Intensity ([7]; 10 ppm added): 0.9 points
Off-Flavor Intensity ([7]; 10 ppt added): 3.6 points
Off-Flavor Intensity ([7]; 100 ppb added): 2.4 points
Off-Flavor Intensity ([7]; 100 ppt added): 3.5 points
